The values that follow come from paper PMC7008171 (Frontiers in Pharmacology, 2020).

One may read the AUC(0-inf) as total exposure, with the tail of the curve extrapolated. Low values mean low exposure, high ones high exposure. The term AUC(0-t) denotes the area under the concentration-time curve up to a stated or last time point. Low values mean less exposure, high ones more exposure. By Cmax is commonly meant the highest concentration seen after dosing. As a reminder, the MRT inf is a mean duration of stay, worked out from the concentration-time curve. In general, MRT last refers to a mean duration of stay, worked out from the concentration-time curve. By Tmax is commonly meant the time at which the peak concentration occurs. As usually defined, the Vd is a proportionality between amount in the body and measured concentration, not a real space. The term clearance denotes the volume of plasma or blood freed of the substance per unit of time. As a reminder, the half-life is how long it takes for the measured level to halve.

On the set-up of data set [1]: method as in Mannens et al., 1994. The note with it: dog plasma; ref Mannens et al., 1994; cited from earlier work.
The conditions of data set [2]: taken orally; ref Huang et al., 1993; de Leon et al., 2010; Shimizu et al., 2017; cited from earlier work.
The conditions of data set [3]: ref PMDA label, 2018; cited from earlier work.
A further data set is described as follows: in vivo. Conditions: both, Beagle, dog, plasma, 1 mg.
Data set [4] can be described thus: Pharmacokinetic study in Beagle dogs (i.v., i.g., supralingual, sublingual; crossover, single dose).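 Also: Single-dose crossover across four periods with one-week washout, plasma drug levels quantified by LC-MS/MS in positive ESI mode, lower quantification limit 0.2 ng/mL.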 Conditions: three-compartmental fit of i.v. profile in Beagle dogs.
Description: (§1) The dogs were kept still for 2 min. A dose of 1 mg/body was administrated.
(§2) Four healthy Beagle dogs (male:female, 1:1) weighting 9.04 ± 1.88 kg (Certificate No. 20150005001131), purchased from Shanghai Jambo Biological Technology Co., Ltd (Shanghai, China), were used in this study. The study protocol was reviewed and approved by the Animal Management and Ethic Committee of the China State Institute of Pharmaceutical Industry. Dogs were housed individually in stainless steel cages. Tap water was given ad-libitum and food was provided once daily. Dogs were fasted for 12 h before drug administration. Blank blood samples were withdrawn prior to the administration of the drugs. Subsequently, blood samples were taken from forelimb vein at 0.167, 0.333, 0.5, 0.75, 1.0, 1.5, 2.0, 3.0, 4.0, 6.0, 8.0, 12, 24, and 32 h into heparin sodium-containing centrifuge tubes which were then centrifuged for 5 min at 3,000 rpm. The supernatant was collected and stored at -20 °C in the refrigerator until further analysis.
(§3) The main pharmacokinetic parameters of maximum plasma concentration (Cmax), peak time (Tmax), area under the concentration-time curve from 0 h to the time of last measurable concentration (AUC0-t), and AUC from 0 to infinity (AUC0-∞), mean residue time (MRT), apparent volume of distribution (Vd), elimination half-life (t1/2), and in vivo clearance (CL) were calculated by non-compartmental approach using the software of DAS 2.0 ([Cheng et al., 2016]).
(§4) Calibration curves were constructed in the concentration range of 0.2–200 ng/ml with a lower limit of quantification (LLOQ) of 0.2 ng/ml. […] The HPLC system (Shimadzu Co. Ltd, Kyoto, Japan) equipped with a triple quadruple mass spectrometer (Shimadzu Co. Ltd, Kyoto, Japan) operating with ESI in the positive mode was used for the quantification of the analytes. Mobile phases consisted of methanol and water (35:65, v/v), both containing 0.05% formic acid and 5 mM ammonium formate. The flow rate was set at 0.3 ml/min. Ten μl of the aliquot was injected into the Inspire C18 column (2.1 mm×50 mm, 3 μm, Dikma Technologies Inc, Beijing, China) at a column oven of 40 °C. […] Direct protein precipitation using acetonitrile was used for the extraction of analytes from dog plasma.
For data set [5] the following is noted: sublingual tablets (Intermezzo), OCCAT model; ref Xia et al., 2015; cited from earlier work.

“And” between values parts separate entries of the source, which are not always exact repeats. Equal entries are not always repeated. Marks after values point to notes of the source that are not given here.

Description for in vivo: as §1, §2, §3, §4

Turning to `Cc1nc2n(c(=O)c1CCN1CCC(c3noc4cc(F)ccc34)CC1)CCCC2` [risperidone], the “fu (plasma unbound fraction)” value in data set [1] was 0.083 ^c. The Oral bioavailability entry in data set [2] is “about 70%”. The “Solubility (pH 6.8)” value in data set [3] is 0.9 ^d mg/ml. Besides, in “in vivo”, the AUC(0-inf) stood at 102 ± 43.3 ng·h/mL, the AUC(0-t) was 98.9 ± 40.9 ng·h/mL, the highest level (Cmax) was 52.6 ± 10.6 ng/mL and the MRT inf stood at 1.93 ± 0.52 h. Besides, in the data set “in vivo”, the MRT last was found to be 1.78 ± 0.41 h, the Tmax came to 0.67 ± 0.38 h, the Vd is 17.8 ± 3.06 L and the clearance was 184 mL/min. In addition, the half-life in the data set “in vivo” is 1.21 ± 0.4 h. In the data set “in vivo” (iv), this compound yielded an AUC(0-inf) of 179 ± 115 ng·h/mL, an AUC(0-t) of 177 ± 113 ng·h/mL, a Cmax of 215 ± 56.4 ng/mL and a mean residence time MRT inf of 1.4 ± 0.89 h. In addition, in “in vivo” (iv), the MRT last stood at 1.3 ± 0.8 h; the time of peak concentration (Tmax) was 0.03 h; the Vd is 12.8 L and 0.314 L/kg; the clearance is 128 mL/min and 9.84 mL/min/kg. This compound also gave a half-life in the data set “in vivo” (iv) of 1.37 ± 0.82 h. For the same compound, in the data set “in vivo” (other: supralingual), the total exposure AUC(0-inf) worked out at 102 ± 57.4 ng·h/mL, the AUC(0-t) came to 97.3 ± 54.4 ng·h/mL, the Cmax came out at 59.4 ± 7.32 ng/mL and the MRT inf worked out at 1.73 ± 0.82 h. Also, in the data set “in vivo” (other: supralingual), the MRT last worked out at 1.5 ± 0.71 h, the Tmax came to 0.62 ± 0.58 h, the Vd is 17.2 ± 7.7 L and the clearance is 199 mL/min. This compound gave a half-life in the data set “in vivo” (other: supralingual) of 1.13 ± 0.5 h. In the data set “in vivo” (po), this compound displayed an AUC(0-inf) of 91.3 ± 48.6 ng·h/mL, an AUC(0-t) of 90 ± 48.7 ng·h/mL, a Cmax of 45.9 ± 7.6 ng/mL and an MRT inf of 1.79 ± 0.74 h. In addition, in “in vivo” (po), the MRT last was 1.71 ± 0.75 h, the time of peak concentration (Tmax) was found to be 0.71 ± 0.53 h and the half-life was 0.92 ± 0.41 h. Also, in data set [4], the K12 is on record as 16.352 ^e h^-1, the K13 was 0.4625 ^e h^-1, the K21 is recorded as 9.007 ^e h^-1 and the K31 is 0.4103 ^e h^-1. Moreover, in data set [4], the “V2 (volume of distribution of the first peripheral compartment)” value is 0.5699 ^e L/kg and the “V3 (volume of distribution of the second peripheral compartment)” value is 0.3538 ^e L/kg.

Regarding `Cc1ccc(-c2nc3ccc(C)cn3c2CC(=O)N(C)C)cc1` [zolpidem], the “Estimated absorption via the oral mucosa” value in data set [5] is “about 18%”.
